Experimental data published in patent publication US7148244B2, “Medicines in controlling Vpr function” (Nippon Shinyaku Co. Ltd., priority 2001, dated 2006).

Key:
[1] = target: Vpr (Human immunodeficiency virus type 1 group M subtype B, UniProt P12520); conditions: literature, Shimura M. et al. 1999; cited from earlier work
[2] = target: T1, FLAG-fused VprΔC (Human immunodeficiency virus type 1 group M subtype B, UniProt P12520); experiment: In vitro direct binding of Vpr and compound; affinity precipitation with compound-immobilized Sepharose beads; parameters: species or system HIV; conditions: FIG. 2 (2) lane 5
T1 construct: made in house; host or cells: TNT-coupled wheat germ extract in vitro transcription/translation (Promega), with 35S-methionine
T1 sequence (P12520 1-72, stated change not applied): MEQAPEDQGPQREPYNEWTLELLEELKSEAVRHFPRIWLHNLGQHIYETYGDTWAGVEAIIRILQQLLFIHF
Text: The DNA fragment of interest (300 bp) was recovered from PCR reaction products by agarose gel electrophoresis, and then cloned into the pGEM-T vector (Promega). This fragment was base analyzed on both plus and minus strands and was verified to correspond to the intended fused Vpr. The vector into which the Vpr gene fused to FLAG has been incorporated is hereinafter referred to as pGEM-T/Vpr-wt. Furthermore, using this pGEM-T/Vpr-wt as a template, a second Vpr gene fused to FLAG in which a C-terminal region of Vpr (a.a. 73–96) was deleted was obtained by PCR utilizing primers shown below (SEQ ID Nos:4 and 5).
This fused gene was cloned into the pGEM-T vector as described above, and the resulting vector is hereinafter referred to as pGEM-T/VprΔC. […]
(§1) Preparation of FLAG-fused Vpr was performed by transcription and translation from the T7 promoter employing the TNT-coupled wheat germ extract in vitro transcription/translation system (wheat germ extract transcription/translation system) (Promega). […] Whether these products were Vpr was analyzed by carrying out western blotting according to typical procedures employing an anti-FLAG antibody after samples resulting from transcription and translation in the absence of the radiolabel were denatured with SDS (sodium dodecylsulfate). […]

[3] = tested on: HeLa; experiment: In vitro functional antagonism between flavonoid (quercetin) and compound; microscopic observation of cell morphologies; type: cell-based
Protocol: Three types of cells were employed (HeLa, ECV304, and HBL-100, purchased from ATCC), and for each type, 1×10^5 cells were seeded in a 10 cm dish and cultured in D-MEM/F-12 medium (Gibco BRL) for 18–20 hours. On the next day, the medium was changed to the same medium containing 1.0 μM quercetin (Sigma; hereinafter abbreviated to QCT), followed by culturing for an additional 2 days. The compound A was then added at a concentration of 600 nM, and 72 hours later observations under a microscope were made of cell morphologies.

[4] = target: T2, FLAG-fused Vpr (Human immunodeficiency virus type 1 group M subtype B, UniProt P12520); experiment: In vitro direct binding of Vpr and compound; affinity precipitation with compound-immobilized Sepharose beads; parameters: species or system HIV
T2 construct: made in house; host or cells: TNT-coupled wheat germ extract in vitro transcription/translation (Promega), with 35S-methionine
T2 sequence (P12520 whole entry, the tested form may be a part): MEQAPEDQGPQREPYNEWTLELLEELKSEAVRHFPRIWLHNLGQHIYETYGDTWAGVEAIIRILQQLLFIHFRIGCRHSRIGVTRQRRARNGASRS
Text: A Vpr gene fused to N-terminal FLAG (SEQ ID NO:1) was obtained by PCR (polymerase chain reaction) using as a template pBT-1 (purchased from ATCC) into which the HIV genome without env had been incorporated. Primers utilized were synthetic DNAs having the following sequences (SEQ ID NOs:1 and 2). N-terminal FLAG: Asp Tyr Lys Asp Asp Asp Asp Lys (SEQ ID NO:1);
The DNA fragment of interest (300 bp) was recovered from PCR reaction products by agarose gel electrophoresis, and then cloned into the pGEM-T vector (Promega). This fragment was base analyzed on both plus and minus strands and was verified to correspond to the intended fused Vpr. The vector into which the Vpr gene fused to FLAG has been incorporated is hereinafter referred to as pGEM-T/Vpr-wt. […]
as §1

Chain of Vpr (P12520 whole entry, the tested form may be a part): as above

Row | SMILES | effect on Vpr functions [1] | binding of radiolabeled FLAG-fused VprΔC (C-terminal a.a. 73–96 deleted) to compound-immobilized beads [2] | effects of the compound after pre-treatment with quercetin ([3]; HeLa cells, 1.0 μM quercetin for 48 hours, then compound 600 nM for 72 hours) | cell cycle state, cell morphology under a microscope ([3]; HeLa cells, compound 600 nM alone, 72 hours, compared with the control group) | number of multinucleate cells having plural nuclei within single cells ([3]; compound 600 nM alone, 72 hours, compared with the control group) | binding of radiolabeled FLAG-fused Vpr to compound-immobilized beads ([4]; affinity precipitation, FIG. 2 (2) lane 3) | region of Vpr to which the compound binds ([4]; concluded from binding to Vpr and no binding to VprΔC)
1 | O=c1c(O)c(-c2ccc(O)c(O)c2)oc2cc(O)cc(O)c12 [quercetin] | inhibits Vpr functions |  |  |  |  |  | 
2 | COc1ccc(S(=O)(=O)Nc2c(/C=C/c3ccncc3)cccc2OCCN)cc1 [compound B, (E)-4-[2-{3-(2-aminoethyloxy)-2-[N-(4-methoxybenzenesulfonyl)amino]phenyl}ethenyl]pyridine] |  | not observed to bind | disappear almost completely | the cell cycle is arrested at the G2/M period | apparently increased | observed to bind | binds directly to the C-terminal region
